What was measured:
CT26 cells = test: Cell cycle analysis by flow cytometry; format: cell-based, mouse; conditions: CT26, 24 h treatment, vs untreated
Protocol: The study of cell cycle arrest in CT26 carcinoma cells treated with the potent compound C1 was conducted to elucidate the potential cellular mechanisms underlying its anticancer effect. For this purpose, CT26 cells were subjected to 24 h treatment with the C1 complex. […] This arrest is likely attributable to molecular alterations within the cancer cells post-treatment. […] This reduction in the S phase, where DNA replication occurs, further indicates the efficacy of the C1 complex in hindering cell cycle progression. […] The induction of cell cycle arrest by the C1 compound potentially curtails the growth and dissemination of carcinoma cells, underscoring its efficacy as a promising anticancer agent.
Our research progressed to explore the potential effects of the newly synthesized C1 complex on the cell cycle dynamics of CT26 tumor cells. […] Each sample tube was then treated with a specific antibody targeting Ki67 (eBioscience, San Diego, CA, USA)/1 μL of Vybrant® DyeCycleTM Ruby stain (Thermo Fisher Scientific Inc., Waltham, MA, USAand subsequently analyzed using a FACS Calibur flow cytometer (BD Biosciences, San Jose, CA, USA). A minimum of 15,000 events per sample were examined. Data analysis was conducted using the FlowJo vX.0.7 software, allowing for a detailed assessment of the cell cycle phases and any impact induced by the C1 complex.

[1] = system: mouse colorectal carcinoma (CT26); test: MTT cytotoxicity assay, CT26; format: cell-based; conditions: 48 h
Protocol: (§1) The in vitro cytotoxicity of newly synthesized mono- and heteronuclear platinum(II)/and zinc(II) complexes, featuring a 4,4′,4″-tri-tert-butyl-2,2′:6′,2″-terpyridine ligand (designated as C1–C5), was assessed using MTT assay procedures. This evaluation targeted various cell lines: mouse colorectal carcinoma (CT26), human colorectal carcinoma (HCT116 and SW480), and non-cancerous mouse mesenchymal stem cells (mMSC). These cell lines were exposed to synthesized complexes for 48 h, with concentrations ranging from 1.17 to 150 μM.
(§2) In our study, various cell lines were cultured, including mouse colorectal carcinoma (CT26), human colorectal carcinoma (HCT116 and SW480) obtained from ATCC, USA, and mouse mesenchymal stem cells (mMSC, Gibco), New York, NY, USA). These cell lines were consistently maintained in complete Dulbecco’s Modified Eagle Medium (DMEM) supplemented with 10% fetal bovine serum (FBS) (Sigma Aldrich, St. Louis, MO, USA), 100 IU/mL penicillin, and 100 μg/mL streptomycin antibiotics (Invitrogen, Carlsbad, CA, USA). The cultures were incubated at 37 °C in a humidified atmosphere of 5% carbon dioxide (CO2). […] The viability and count of the cells were determined using Trypan blue staining, ensuring the accuracy and reliability of the experimental outcomes.
(§3) The cytotoxic effects of five newly synthesized complexes, alongside cisplatin, were assessed through the MTT assay method, in line with previously established protocols. During the exponential growth phase, cells were collected from culture flasks, counted, and then seeded in 96-well culture plates at a density of 5·10^3 cells per well. Subsequent treatment involved exposing these cells to varying concentrations of the newly synthesized complexes and cisplatin (ranging from 1.17 to 150 μM) for a duration of 48 h, with fresh complete medium serving as the control. The results were quantified relative to the control (untreated cells), providing a comparative measure of cytotoxicity. Additionally, IC50 values, representing the concentration required to inhibit 50% of the cell viability, were calculated using Microsoft Office Excel 2010. Lastly, the data were presented as percentages of viable cells in accordance with the methodology outlined in the referenced study, facilitating a comprehensive understanding of the anticancer potential of these compounds.

[2] = system: human colorectal carcinoma (SW480); test: MTT cytotoxicity assay, SW480; format: cell-based; conditions: 48 h
Protocol: as §1, §2, §3

[3] = target: T1, Human serum albumin (HSA) (Homo sapiens, UniProt P02768); test: HSA fluorescence quenching; format: binding; conditions: HSA 2 µM, complex 0–30 µM, PBS pH 7.4, room temperature, λex 295 nm
T1 construct: reagents in general came from Sigma-Aldrich, Acros Organics or Merck
T1 sequence (P02768 25-609): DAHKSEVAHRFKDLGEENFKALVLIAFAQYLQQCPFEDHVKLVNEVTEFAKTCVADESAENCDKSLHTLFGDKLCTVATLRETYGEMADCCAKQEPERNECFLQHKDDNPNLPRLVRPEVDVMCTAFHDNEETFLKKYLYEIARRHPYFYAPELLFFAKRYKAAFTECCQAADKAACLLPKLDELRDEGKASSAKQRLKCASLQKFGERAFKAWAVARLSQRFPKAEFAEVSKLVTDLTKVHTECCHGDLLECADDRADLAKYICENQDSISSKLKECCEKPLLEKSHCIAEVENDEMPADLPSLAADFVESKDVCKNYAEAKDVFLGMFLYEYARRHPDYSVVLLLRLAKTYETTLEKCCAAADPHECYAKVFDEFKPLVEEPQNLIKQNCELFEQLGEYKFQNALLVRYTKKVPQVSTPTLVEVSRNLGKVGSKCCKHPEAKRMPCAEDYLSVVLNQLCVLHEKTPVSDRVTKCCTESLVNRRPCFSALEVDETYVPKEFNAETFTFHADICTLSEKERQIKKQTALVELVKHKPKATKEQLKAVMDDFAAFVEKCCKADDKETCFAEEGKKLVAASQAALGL
Description: Human serum albumin (HSA) produces a fluorescence signal when excited at 295 nm due to the tryptophan residues. This characteristic makes fluorescence spectroscopy an effective tool for studying complex interactions involving HSA. If the examined complex interacts with HSA, an increasing concentration of the complex will lead to a decrease in fluorescence, as shown in Figure 4 and Figures S14–S17. […] The Stern–Volmer equation (Equation (S2)) was used to determine the Stern–Volmer constant, Ksv, for the HSA interactions.
The binding affinity of the complexes C1–C5 to HSA has been determined through fluorescence quenching experiments. The measurements were conducted in a 0.01 M PBS with a pH of 7.4 at room temperature. The HSA concentration was kept constant at 2 μM while the concentration of complexes C1–C5 was increased from 0 to 30 μM, resulting in a significant decrease in emissions at 352 nm. Before each measurement, the system was shaken at room temperature. The fluorescence intensity was measured with the wavelength of excitation at 295 nm and recorded in the 300 to 500 nm range. The width of the excitation and emission slits (10 nm) and scan rate were maintained at a constant rate. The Stern–Volmer constants, Ksv, were determined by Equation (2).

[ZnCl2(terpy^t^Bu)] [C1]
Cell cycle distribution, G0/G1 phase (CT26 cells): G0/G1 phase arrest | Cell cycle distribution, synthesis (S) phase (CT26 cells): notable decrease | Selectivity Index (IC50 mMSC/IC50), CT26 [1]: 1.3 | IC50 ([1]; read-out: IC50 ± SEM, CT26): 44.7 ± 58.7 µM | Selectivity Index (IC50 mMSC/IC50), SW480 [2]: 0.5 | IC50 ([2]; read-out: IC50 ± SEM, SW480): 106 ± 126 µM | Stern–Volmer constant Ksv, HSA [3]: 1.8 ± 0.1 10^4 M^–1
